In patent US20260294871A1, “PHARMACEUTICAL COMBINATIONS AND COMPOSITIONS THEREOF COMPRISING ANTIBACTERIAL AGENTS” (priority 2023, published 2026):
Read-outs that look alike come from different tables or passages of the source.

Legend:
[1] = tested on: Enterobacterales isolates from India; test: MIC by broth microdilution against Enterobacterales; type: cell-based, Enterobacteriaceae
Method: (§1) In a typical study MIC tests were performed by broth microdilution in line with CLSI susceptibility testing standards. Bacterial inocula were prepared at ca. 1×10^6 CFU/mL by diluting 100-fold a 0.5 McFarland suspension in CA-MHB with TES. Microtiter plate wells containing 50 μL of antibacterial solutions at 2×the final concentrations were diluted 2-fold with 50 μL of inoculum to give a final inoculum of ca. 5×10^5 CFU/mL and desired test concentrations of antibacterial agents. Test microtiter plates were incubated according to CLSI guidelines and read visually. MIC values corresponded to the first well with no visible growth.
The results of antibacterial activity of amikacin, Ceftazidime-avibactam, Ceftriaxone with sulbactam and EDTA, Meropenem and Meropenem with avibactam and EDTA against highly resistant strains of Enterobacteriaceae are given in Table 2.

Escherichia coli = test: MIC by broth microdilution against E. coli; type: cell-based
Method: as §1
The results of antibacterial activity of amikacin, Ceftazidime-avibactam, Ceftriaxone with sulbactam and EDTA, Meropenem and Meropenem with avibactam and EDTA against highly resistant strains of Escherichia coli are given in Table 3. […] There was a marked improvement in antibacterial activity, compared to MEM alone, observed for the triple combination MEM/AVI [4 mg/L]/EDTA [10 mM] with a MIC90 at 0.004 μg/mL

P. aeruginosa [2] = test: MIC by broth microdilution against P. aeruginosa; type: cell-based, Pseudomonas aeruginosa
Method: as §1
The results of antibacterial activity of amikacin, Ceftazidime-avibactam, Ceftriaxone with sulbactam and EDTA, Meropenem and Meropenem with avibactum and EDTA against highly resistant strains of P. aeruginosa are given in Table 5. As may be seen, the activity of the comparators was much lower although CRO/S4/E10 maximum MIC90 were much lower at ≤0.03 μg/mL.

E. coli = test: Frequency of Resistance (FOR) Study, E. coli; type: cell-based
Method: (§2) Objective: The in-vitro study was conducted to determine the frequency of resistance in 8 characterized isolates.
(§3) • Isolates: 8 isolates-E. coli (3), K. pneumoniae (2), A. baumannii (1) and P. aeruginosa (2) • Compound tested: Meropenem; Meropenem Avibactam (4); Meropenem EDTA (10 mM); Meropenem Avibactam (4) EDTA (10 mM) • Antibiotic Concentration used: […]

P. aeruginosa [3] = test: Frequency of Resistance (FOR) Study, P. aeruginosa; type: cell-based; note: key: TMTC: To more to count
Method: as §2, §3

K. pneumoniae [4] = test: Frequency of Resistance (FOR) Study, K. pneumoniae; type: cell-based
Method: as §2, §3

A. baumannii = test: Frequency of Resistance (FOR) Study, A. baumannii; note: key: TMTC: To more to count; type: cell-based; conditions: strain 8 - A. baumannii
Method: as §2, §3

K. pneumoniae [5] = test: MIC of Time Kill Assay isolates, K. pneumoniae; type: cell-based; conditions: Klebsiella pneumoniae; TKA isolates
Method: Objective: The in-vitro Time Kill Assay study was conducted to determine the log reduction in 5 characterised MDR isolates.
• Isolates: 5 isolates-E. coli (3), K. pneumoniae (2) • Compound tested: Meropenem; Meropenem Avibactam (4); Meropenem EDTA (10 mM); Meropenem Avibactam (4) EDTA (10 mM) • 1 log—90% killing, 2 log 99% killing and 3 log 99.9% killing. Bactericidal: 3 log reduction (99.9% killing) • MIC: […]

[6] = tested on: E. coli, K. pneumoniae, P. aeruginosa A. baumannii and E. cloacae; test: Effects of body fluids on MIC, all tested isolates; type: cell-based, Gram-negatives clinical isolates
Method: Objective: The combinations of meropenem (MEM) in the presence of different concentrations of avibactam (AVI) and EDTA were tested. The triple combination test compounds were investigated for in-vitro activity in presence cation-adjusted Mueller Hinton broth (CA-MHB) and CA-MHB supplemented with different body fluids i.e. human serum (25% and 50%), pooled urine (25% and 50%), bovine Surfactant (1 and 5%) and human peritoneal fluid (25 and 50%) against the a set of Gram-negatives clinical isolates from India.
Method: The tolerance screening was performed on a total of 60 isolates to ascertain tolerance to body fluids and total 19 isolates including ATCC strains and non-duplicate clinically relevant Escherichia coli (n=6), Klebsiella pneumoniae (n=3), Pseudomonas aeruginosa (n=6) Acinetobacter baumannii (n=3) and Enterobacter cloacae (n=1) were selected prior to susceptibility testing. Tested compounds included Meropenem with AVI at 4 and EDTA at 10 mM (MEM/A4/E10), Meropenem with AVI at 4 and EDTA at 20 mM (MEM/A4/E20), Meropenem with AVI at 8 and EDTA at 10 mM (MEM/A8/E10), Meropenem with AVI at 8 and EDTA at 20 mM (MEM/A8/E20), Meropenem (MEM), Ceftriaxone with sulbactam at […] and EDTA at 10 mM (CRO/S10/E10), Ceftazidime-avibactam (CZA), Amikacin (AMK), Tigecycline and Minocycline. […]

Structure (SMILES): C[C@@H](O)[C@H]1C(=O)N2C(C(=O)O)=C(S[C@@H]3CN[C@H](C(=O)N(C)C)C3)[C@H](C)[C@H]12 [Meropenem, (4R,5S,6S)-3-(((3S,5S)-5-(dimethylcarbamoyl)pyrrolidin-3-yl)thio)-6-((R)-1-hydroxyethyl)-4-methyl-7-oxo-1-azabicyclo[3.2.0]hept-2-ene-2-carboxylic acid]
- MIC50 [1]: > 32 µg/mL
- MIC90 [1]: > 32 µg/mL
- isolates resistant to meropenem (MEM NS) ([1]; 250 out of 301): 82.7%
- MIC50 ([1]; MEM-NS isolates (n=250)): > 32 µg/mL
- MIC90 ([1]; MEM-NS isolates (n=250)): > 32 µg/mL
- MIC50 ([1]; n=301): >32 µg/mL
- MIC90 ([1]; n=301): >32 µg/mL
- MIC50 (Escherichia coli; Escherichia coli, highly resistant strains, read-out: MIC50): > 32 µg/mL
- MIC90 (Escherichia coli; Escherichia coli, highly resistant strains, read-out: MIC90): > 32 µg/mL
- MIC50 (Escherichia coli; MEM-NS isolates (n=105)): > 32 µg/mL
- MIC90 (Escherichia coli; MEM-NS isolates (n=105)): > 32 µg/mL
- MIC50 (Escherichia coli; highly resistant strains): >32 µg/mL
- MIC90 (Escherichia coli; highly resistant strains): >32 µg/mL
- MEM-NS isolates (Escherichia coli; n=105): 88.2%
- MIC90 (P. aeruginosa [2]; MEM-NS isolates (n=120)): > 32 µg/mL
- MIC50 (P. aeruginosa [2]; Pseudomonas aeruginosa, highly resistant strains): > 32 µg/mL
- MIC90 (P. aeruginosa [2]; Pseudomonas aeruginosa, highly resistant strains, read-out: MIC90): > 32 µg/mL
- MIC90 (P. aeruginosa [2]; highly resistant strains): >32 µg/mL
- MEM-NS isolates (P. aeruginosa [2]; n=120): 92.7%
- count, 24 H of Incubation (E. coli; strain 1 - E. coli, ATB concentration 4x): 0
- count, 24 H of Incubation (E. coli; strain 1 - E. coli, ATB concentration 8x): 0
- count, 24 H of Incubation (E. coli; strain 1 - E. coli, ATB concentration 16x): 0
- count, 24 H of Incubation (E. coli; strain 4 - E. coli, ATB concentration 4x): TMTC
- count, 24 H of Incubation (E. coli; strain 4 - E. coli, ATB concentration 8x): TMTC
- count, 24 H of Incubation (E. coli; strain 4 - E. coli, ATB concentration 16x): TMTC
- count, 24 H of Incubation (E. coli; strain 5 - E. coli, ATB concentration 4x): 0
- count, 24 H of Incubation (E. coli; strain 5 - E. coli, ATB concentration 8x): 0
- count, 24 H of Incubation (E. coli; strain 5 - E. coli, ATB concentration 16x): 0
- count, 24 H of Incubation (P. aeruginosa [3]; strain 2 - P. aeruginosa, ATB concentration 4x): TMTC
- count, 24 H of Incubation (P. aeruginosa [3]; strain 2 - P. aeruginosa, ATB concentration 8x): TMTC
- count, 24 H of Incubation (P. aeruginosa [3]; strain 2 - P. aeruginosa, ATB concentration 16x): TMTC
- count, 24 H of Incubation (P. aeruginosa [3]; strain 3 - P. aeruginosa, ATB concentration 4x): TMTC
- count, 24 H of Incubation (P. aeruginosa [3]; strain 3 - P. aeruginosa, ATB concentration 8x): TMTC
- count, 24 H of Incubation (P. aeruginosa [3]; strain 3 - P. aeruginosa, ATB concentration 16x): TMTC
- count, 24 H of Incubation (K. pneumoniae [4]; strain 6 - K. pneumoniae, ATB concentration 4x): TMTC
- count, 24 H of Incubation (K. pneumoniae [4]; strain 6 - K. pneumoniae, ATB concentration 8x): 303
- count, 24 H of Incubation (K. pneumoniae [4]; strain 6 - K. pneumoniae, ATB concentration 16x): 0
- count, 24 H of Incubation (K. pneumoniae [4]; strain 7 - K. pneumoniae, ATB concentration 4x): TMTC
- count, 24 H of Incubation (K. pneumoniae [4]; strain 7 - K. pneumoniae, ATB concentration 8x): TMTC
- count, 24 H of Incubation (K. pneumoniae [4]; strain 7 - K. pneumoniae, ATB concentration 16x): TMTC
- count, 24 H of Incubation (A. baumannii; ATB concentration 4x): TMTC
- count, 24 H of Incubation (A. baumannii; ATB concentration 8x): TMTC
- count, 24 H of Incubation (A. baumannii; ATB concentration 16x): TMTC
- MIC (K. pneumoniae [5]): > 32 µg/mL
- MIC [6]: > 32 µg/mL
